The target of this assay is T1, DPP-IV (Homo sapiens, UniProt P27487).
T1 construct: purchased Enzyme Systems Products SPE-01
In words: In vitro assay for dipeptidyl peptidase inhibition. The format is biochemical. The following applies: n-value given in brackets; read-out: DPP-IV IC50.

Counter-ions that a name gives are not always drawn.

In US7485641B2, “Substituted 3-amino-pyrrolidino-4-lactams” (Pfizer, Inc., priority 2006, dated 2009) one finds IC50 data, which are given here for 13 compounds.

T1 sequence (P27487 whole entry, species assumed): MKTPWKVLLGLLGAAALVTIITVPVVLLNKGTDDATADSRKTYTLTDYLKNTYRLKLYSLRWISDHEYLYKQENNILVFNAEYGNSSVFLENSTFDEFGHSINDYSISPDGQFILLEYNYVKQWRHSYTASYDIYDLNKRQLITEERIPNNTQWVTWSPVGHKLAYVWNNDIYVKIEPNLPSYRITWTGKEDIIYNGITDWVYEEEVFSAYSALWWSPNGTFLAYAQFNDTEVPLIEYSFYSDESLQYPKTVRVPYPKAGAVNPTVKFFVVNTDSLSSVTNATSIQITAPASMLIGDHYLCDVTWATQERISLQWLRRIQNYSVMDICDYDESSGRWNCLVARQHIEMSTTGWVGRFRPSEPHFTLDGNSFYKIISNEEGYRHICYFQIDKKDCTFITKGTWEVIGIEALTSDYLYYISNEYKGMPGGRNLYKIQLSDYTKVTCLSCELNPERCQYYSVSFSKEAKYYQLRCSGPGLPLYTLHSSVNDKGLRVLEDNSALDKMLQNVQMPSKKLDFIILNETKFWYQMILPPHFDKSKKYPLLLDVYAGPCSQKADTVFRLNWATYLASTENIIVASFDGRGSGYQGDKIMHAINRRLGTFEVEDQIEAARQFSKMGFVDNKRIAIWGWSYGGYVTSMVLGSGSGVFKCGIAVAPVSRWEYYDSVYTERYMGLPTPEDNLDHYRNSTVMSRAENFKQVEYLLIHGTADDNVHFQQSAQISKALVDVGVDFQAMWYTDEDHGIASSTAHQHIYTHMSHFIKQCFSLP

For `COc1ccc2c(N3C[C@H](N)[C@@H](N4CCCCC4=O)C3)ncnc2c1` [Example 103, 1-[(3S,4S)-4-Amino-1-(7-methoxy-quinazolin-4-yl)-pyrrolidin-3-yl]-piperidin-2-one hydrochloride], the IC50 (usually the midpoint of a concentration-inhibition curve) is 26.1 nM.
The result for `N[C@H]1CN(c2ncnc3cc(OC4CCCC4)ccc23)C[C@@H]1N1CCCCC1=O` [Example 119, 1-((3S,4S)-4-amino-1-(7-(cyclopentyloxy)quinazolin-4-yl)pyrrolidin-3-yl)piperidin-2-one] reads 107 nM; that for `CCSc1ccc2c(N3C[C@H](N)[C@@H](N4CCCCC4=O)C3)ncnc2c1` [Example 140, 1-((3S,4S)-4-amino-1-(7-(ethylthio)quinazolin-4-yl)pyrrolidin-3-yl)piperidin-2-one], 55 nM.
Next, `COc1ccc(-c2cc(N3C[C@H](N)[C@@H](N4CC(F)(F)CCC4=O)C3)ncn2)cn1` [Example 9, 1-((3S,4S)-4-amino-1-(6-(6-methoxypyridin-3-yl)pyrimidin-4-yl)pyrrolidin-3-yl)-5,5-difluoropiperidin-2-one trifluoroacetate]: 27.3 nM; `N[C@H]1CN(c2ncnc3c2ncn3C2CC2)C[C@@H]1N1CCCCC1=O` [Example 150, 1-[(3S,4S)-4-Amino-1-(9-cyclopropyl-9H-purin-6-yl)-pyrrolidin-3-yl]-piperidin-2-one hydrochloride]: 189 nM; `N[C@H]1CN(c2cc(N3CCc4cncnc4C3)ncn2)C[C@@H]1N1CCCC1=O` [Example 63, 1-((3S,4S)-4-Amino-1-(6-(5,6-dihydropyrido[3,4-d]pyrimidin-7(8H)-yl)pyrimidin-4-yl)pyrrolidin-3-yl)pyrrolidin-2-onedihydrochloride]: 1990 nM.
Next, `CC(C)S(=O)(=O)Oc1ccc2c(N3C[C@H](N)[C@@H](N4CCCCC4=O)C3)ncnc2c1` [Example 136, 4-((3S,4S)-3-amino-4-(2-oxopiperidin-1-yl)pyrrolidin-1-yl)quinazolin-7-yl propane-2-sulfonate]: 135 nM; `N[C@H]1CN(c2ncnc(N3C[C@@H](F)[C@H](F)C3)n2)C[C@@H]1N1CCCCC1=O` [Example 29, 1-((3S,4S)-4-Amino-1-(4-((3R,4R)-3,4-difluoropyrrolidin-1-yl)-1,3,5-triazin-2-yl)pyrrolidin-3-yl)piperidin-2-onetrifluoroacetate]: 154 nM; `N[C@H]1CN(c2cc(N3CCS(=O)(=O)CC3)ncn2)C[C@@H]1N1CCCC1=O` [Example 69, 1-((3S,4S)-4-Amino-1-[6-(1,1-dioxo-6-thiomorpholin-4-yl)-pyrimidin-4-yl]-pyrrolidin-3-yl)pyrrolidin-2-onedihydrochloride]: 1060 nM.
Consider `N#CCCc1ccc2c(N3C[C@H](N)[C@@H](N4CCCCC4=O)C3)ncnc2c1` [Example 118, 3-(4-((3S,4S)-3-amino-4-(2-oxopiperidin-1-yl)pyrrolidin-1-yl)quinazolin-7-yl)propanenitrile], for which the IC50 turned out to be 85.2 nM.
For `CSc1nc(N2C[C@H](N)[C@@H](N3CCCCC3=O)C2)cc(N2CCC(F)(F)C2)n1` [Example 19, 1-((3S,4S)-4-amino-1-(6-(3,3-difluoropyrrolidin-1-yl)-2-(methylthio)pyrimidin-4-yl)pyrrolidin-3-yl)piperidin-2-one], the 50% inhibitory concentration (IC50) was 74.9 nM.
In the case of `N[C@H]1CN(c2ncnc3cc(Cl)ccc23)C[C@@H]1N1CCCCC1=O` [Example 102, 1-[(3S,4S)-4-Amino-1-(7-chloro-quinazolin-4-yl)-pyrrolidin-3-yl]-piperidin-2-one hydrochloride], the IC50 was 61.4 nM.
For the compound `N[C@H]1CN(c2ncnc3cc(Oc4ccccc4)ccc23)C[C@@H]1N1CC(F)(F)CCC1=O` [Example 101, 1-((3S,4S)-4-amino-1-(7-phenoxyquinazolin-4-yl)pyrrolidin-3-yl)-5,5-difluoropiperidin-2-one], the IC50 was determined as 122 nM.
